Assay: mn = molality of the nth substance listed, in mol/kg
Conditions: for electrical conductivity: 100 kPa, Liquid, Frequency=0.002 MHz, Alternating current cell with electrodes; for surface tension liquid-gas: Ring tensiometer

CCCCCCCCCCCC[N+](C)(C)C.[Br-] [dodecyltrimethylammonium bromide] + O
Conditions | electrical conductivity, 303.15 K [S/m] | electrical conductivity, 313.15 K [S/m] | electrical conductivity, 323.15 K [S/m] | surface tension liquid-gas, 313.15 K [mN/m]
m1 = 6e-06 | – | – | – | 65.2
m1 = 2.5e-05 | – | – | – | 63.6
m1 = 5.6e-05 | – | – | – | 62.5
m1 = 0.000135 | – | – | – | 61.3
m1 = 0.000263 | – | – | – | 58.3
m1 = 0.000739 | – | – | – | 54.7
m1 = 0.001308 | – | – | – | 51.3
m1 = 0.00178 | 0.0194 | 0.0234 | 0.0282 | –
m1 = 0.00353 | 0.0374 | 0.0467 | 0.0547 | –
m1 = 0.004064 | – | – | – | 46
m1 = 0.00524 | 0.0553 | 0.0668 | 0.0802 | –
m1 = 0.006048 | – | – | – | 43.3
m1 = 0.00692 | 0.0727 | 0.0871 | 0.105 | –
m1 = 0.008433 | – | – | – | 39.5
m1 = 0.00857 | 0.0893 | 0.107 | 0.128 | –
m1 = 0.01019 | 0.106 | 0.126 | 0.152 | –
m1 = 0.01178 | 0.121 | 0.145 | 0.174 | –
m1 = 0.01333 | 0.136 | 0.163 | 0.196 | –
m1 = 0.01486 | 0.149 | 0.18 | 0.216 | –
m1 = 0.01636 | 0.157 | 0.193 | 0.234 | –
m1 = 0.01784 | 0.162 | 0.201 | – | –
m1 = 0.01789 | – | – | 0.247 | –
m1 = 0.01929 | 0.166 | 0.208 | 0.258 | –
m1 = 0.01941 | – | – | – | 36.2
m1 = 0.02071 | 0.17 | 0.213 | 0.265 | –
m1 = 0.02211 | 0.174 | 0.219 | 0.272 | –
m1 = 0.02348 | 0.178 | 0.224 | 0.279 | –
m1 = 0.02483 | 0.181 | 0.229 | 0.285 | –
m1 = 0.02615 | 0.185 | 0.234 | 0.292 | –
m1 = 0.02746 | 0.189 | 0.238 | 0.297 | –
m1 = 0.02874 | 0.192 | 0.243 | 0.304 | –
m1 = 0.03 | 0.195 | 0.247 | 0.31 | –
m1 = 0.0309 | – | – | – | 37.9
m1 = 0.0456 | – | – | – | 38.3
m1 = 0.07211 | – | – | – | 38.8
m1 = 0.1062 | – | – | – | 38.9

Reference: the NIST ThermoML archive (doi:10.1021/acs.jced.8b00372)
